Laboratory results from PMC10928712, “High Target Homology Does Not Guarantee Inhibition: Aminothiazoles Emerge as Inhibitors of Plasmodium falciparum” (ACS Infectious Diseases, 2024).
Values joined by “and” are separate entries in the source; they are usually repeats but may differ in a detail not shown here. Equal entries are not always repeated. Where two headings read alike, the source gives them in different places.

Assays:
[1] = test system: P. falciparum Dd2; assay: Method III growth inhibition assay (HRP2-ELISA, 3 days), Dd2; assay type: cell-based, Plasmodium falciparum
[2] = test system: P. falciparum 3D7; assay: Method III growth inhibition assay (HRP2-ELISA, 3 days), 3D7; assay type: cell-based, Plasmodium falciparum
[3] = chloroquine-resistant Dd2, method III
[4] = 3D7, method III (HRP2 assay), drc package of R, read-out: IC50 P. falciparum 3D7 (method III)
[5] = table of compounds as SMILES with biological activity, strain not given, values match 3D7 method III, read-out: IC50
[6] = Plasmodium falciparum, 3D7, table of compounds as SMILES with biological activity, strain not given, values match 3D7 method III, read-out: IC50
[7] = Plasmodium falciparum, DD2, chloroquine-resistant Dd2, method III
[8] = Plasmodium falciparum, 3D7, 3D7, method III (HRP2 assay), drc package of R, read-out: IC50 P. falciparum 3D7 (method III)

Row | Compound | IC50 [1, 3] [µM] | IC50 [2, 4] | IC50 [2, 5] [µM] | IC50 [2, 6] [µM] | IC50 [1, 7] [µM] | IC50 [2, 8] [µM]
1 | 2′,4′-Dimethyl-N-(4-(trifluoromethyl)phenyl)-[5,5′-bithiazol]-2-amine [compound 41] | 5 | ~10 µM and 10 µM | 9.5 | – | – | –
2 | 4-(2-((4-(Trifluoromethyl)phenyl)amino)thiazol-5-yl)benzene-1,3-diol [compound 38] | – | 22 ± 6 µM | 22.1 | – | – | –
3 | 5-(Pyridin-4-yl)-N-(4-(trifluoromethyl)phenyl)thiazol-2-amine [compound 36] | – | 34 ± 2 µM | 34.2 | – | – | –
4 | COc1ccc(C(Cc2ccc(Cl)cc2)=NO)cn1 [7E, 2-(4-Chlorophenyl)-1-(6-methoxypyridin-3-yl)ethan-1-one oxime] | > 55 | 44 ± 10 µM | – | 43.6 | – | –
5 | COc1ccc(C(Cc2ccc(Cl)cc2)=NO)cn1 [7Z, 2-(4-Chlorophenyl)-1-(6-methoxypyridin-3-yl)ethan-1-one oxime] | > 111 | > 111 µM | – | – | – | –
6 | ON=C(Cc1ccc(Cl)cc1)c1ccc(O)nc1 [8E, 2-(4-Chlorophenyl)-1-(6-hydroxypyridin-3-yl)ethan-1-one oxime] | > 111 | > 111 µM | – | – | – | –
7 | ON=C(Cc1ccc(Cl)cc1)c1ccc(O)nc1 [8Z, 2-(4-Chlorophenyl)-1-(6-hydroxypyridin-3-yl)ethan-1-one oxime] | > 28 | > 28 µM | – | – | – | –
8 | COc1ccc(C(Cc2ccc(Cl)cc2)=NO)c(O)c1 [compound 9] | – | – | – | 46.8 | 24 ± 6 | 47 ± 15
9 | CON=C(Cc1ccc(Cl)cc1)c1ccc(O)cc1O [compound 11, (E)-2-(4-Chlorophenyl)-1-(2,4-dihydroxyphenyl)ethan-1-one o-Methyl Oxime] | – | – | – | – | 19 ± 3 | 28 ± 9
10 | OCc1cn(Cc2ccc(Cl)c(Cl)c2)c2ncccc12 [compound 14, (1-(3,4-Dichlorobenzyl)-1H-pyrrolo[2,3-b]pyridin-3-yl)methanol] | – | – | – | – | 91 ± 18 | > 111
11 | OCc1cn(-c2ccc(Cl)c(Cl)c2)c2ccccc12 [compound 15, (1-(3,4-Dichlorophenyl)-1H-indol-3-yl)methanol] | – | – | – | 55.5 | 54 ± 6 | > 56
12 | COc1cccc2c(CO)cn(Cc3ccc(Cl)c(Cl)c3)c12 [compound 16] | – | – | – | 55.5 | 48 ± 13 | > 56
13 | N#Cc1ccc2c(CO)cn(Cc3ccc(Cl)c(Cl)c3)c2c1 [compound 17] | – | – | – | 43.8 | 44 ± 9 | 44 ± 19
14 | OCc1nn(Cc2ccc(Cl)c(Cl)c2)c2ccccc12 [compound 18, (1-(3,4-Dichlorobenzyl)-1H-indazol-3-yl)methanol] | – | – | – | 33.9 | 70 ± 21 | 34
15 | OCCc1cn(Cc2ccc(Cl)c(Cl)c2)c2ccccc12 [compound 19, 2-(1-(3,4-Dichlorobenzyl)-1H-indol-3-yl)ethan-1-ol] | – | – | – | 28.9 | 12 ± 3 | 29 ± 1
16 | OCc1cn(Cc2ccc(Cl)cc2)c2ccccc12 [compound 20] | – | – | – | 27.2 | 22 ± 5 | 28 ± 14
17 | COc1ccc2c(c1)c(CO)cn2Cc1ccc(Cl)c(Cl)c1 [compound 21, (1-(3,4-Dichlorobenzyl)-5-methoxy-1H-indol-3-yl)methanol] | – | – | – | 18.5 | 54 ± 6 | 19 ± 1
18 | COc1cccc2c1c(CO)cn2Cc1cccc(Cl)c1 [compound 22, (1-(3-Chlorobenzyl)-4-methoxy-1H-indol-3-yl)methanol] | – | – | 15.6 | 13.8 | 14 ± 4 | 16 ± 3
19 | OCc1cn(Cc2ccc(Cl)c(Cl)c2)c2c(Cl)cccc12 [compound 23, (7-Chloro-1-(3,4-dichlorobenzyl)-1H-indol-3-yl)methanol] | – | 14 ± 1 µM | – | – | 36 ± 16 | 13
20 | N^2-(3-Chloro-2-methylphenyl)-4′-methyl-[5,5′-bithiazole]-2,2′-diamine [compound 40] | – | 16 ± 2 µM | 15.9 | – | – | –
21 | N^2-(3-Methoxyphenyl)-4′-methyl-[5,5′-bithiazole]-2,2′-diamine [compound 39] | – | 18 µM | 17.9 | – | – | –
